Laboratory results published in US20260007601A1, “IONIZABLE CATIONIC LIPID COMPOUND AND COMPOSITION FOR DELIVERING NUCLEIC ACID AND USE THEREOF” (BEIJING YOUCAREKECHUANG PHARMACEUTICAL TECHNOLOGY CO., LTD., priority 2023, published 2026).
Values joined by “and” are separate entries in the source; they are usually repeats but may differ in a detail not shown here. Equal entries are not always repeated.

Key:
293T cells [1] = experiment: Cell transfection experiment of LNP formulation of eGFP-mRNA (optimization of preparation conditions); type: cell-based; settings: 0.5% to 15% tested
Method: The cationic lipid compound YK-202 synthesized in Example 1, DSPC (AVT (Shanghai) Pharmaceutical Technology Co., Ltd.), cholesterol (AVT (Shanghai) Pharmaceutical Technology Co., Ltd.) and DMG-PEG2000 were dissolved in ethanol at a molar ratio of 49:10:39.5:1.5 to prepare an ethanol lipid solution. The ethanol lipid solution was quickly added to a citrate buffer (pH=4 to 5) by ethanol injection method and vortexed for 30 seconds for use. eGFP-mRNA was diluted in a citrate buffer (pH=4 to 5) to obtain an mRNA aqueous solution. […]
Plating: The cells in the culture dish were digested, counted, plated in a 96-well plate at 10,000 cells per well, or in a 12-well plate at 150,000 cells per well, and cultured overnight until the cells adhered to the wall.
Cell transfection experiment: The LNP formulation containing 1.5 μg of eGFP-mRNA prepared in Example 2 (the cationic lipid in the carrier was YK-202) and Lipofectamin 3000 formulation of eGFP-mRNA were added to the cell culture medium in a 12-well plate, and the cells were cultured for 24 hours. The transfection efficiency of different samples was investigated by fluorescence microscopy based on the fluorescence intensity.

293T cells [2] = experiment: Fluorescence detection of Fluc-mRNA (cell transfection efficiency of LNP formulations); type: cell-based; settings: for RLU / cell transfection efficiency, times that of ALC-0315 / RLU / cell transfection efficiency, times that of HHMA / RLU / cell transfection efficiency, times that of Lipofectamine 3000 / RLU / cell transfection efficiency, times that of YK-009 / RLU / cell transfection efficiency, times that of compound 21 / RLU / cell transfection efficiency, times that of compound 23 / cell transfection efficiency, times that of YK-223 / cell transfection efficiency, times that of YK-224 / cell transfection efficiency, times that of YK-226 / fluorescence absorption value / cell transfection efficiency, times that of YK-203 / fluorescence absorption value / cell transfection efficiency, times that of YK-204 / fluorescence absorption value / cell transfection efficiency, times that of YK-205 / fluorescence absorption value / cell transfection efficiency, times that of YK-208 / fluorescence absorption value / cell transfection efficiency, times that of YK-210 / fluorescence absorption value / cell transfection efficiency, times that of YK-211 / fluorescence absorption value / cell transfection efficiency, times that of YK-212 / fluorescence absorption value / cell transfection efficiency, times that of YK-213 / fluorescence absorption value / cell transfection efficiency, times that of YK-214 / fluorescence absorption value / cell transfection efficiency, times that of YK-215 / fluorescence absorption value / cell transfection efficiency, times that of YK-216 / fluorescence absorption value / cell transfection efficiency, times that of YK-217 / fluorescence absorption value / cell transfection efficiency, times that of YK-218 / fluorescence absorption value / cell transfection efficiency, times that of YK-219 / fluorescence absorption value / cell transfection efficiency, times that of YK-220 / fluorescence absorption value, times that of YK-222: Fluc-mRNA LNP; for Relative light unit (RLU): LNP containing 0.3 μg Fluc-mRNA, 24 hours; for Multiples of values that equivalent to YK-201: RLU of YK-201 / RLU of the named lipid; for Multiples of values that equivalent to YK-202: RLU of YK-202 / RLU of the named lipid
Procedure, shortened: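 293T cells at 10,000 per well, adhered overnight, then given LNPs carrying 0.3 μg Fluc-mRNA (cationic:neutral:structured:polymer-conjugated lipid 49:10:39.5:1.5 molar). After 24 h, luciferase signal read with luciferase kit reagents on an IVIS imaging system as transfection efficiency.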

Structure (SMILES)	RLU / cell transfection efficiency, times that of ALC-0315 (293T cells [2]) [times]	RLU / cell transfection efficiency, times that of HHMA (293T cells [2]) [times]	RLU / cell transfection efficiency, times that of Lipofectamine 3000 (293T cells [2]) [times]	RLU / cell transfection efficiency, times that of YK-009 (293T cells [2]) [times]	RLU / cell transfection efficiency, times that of compound 21 (293T cells [2])	RLU / cell transfection efficiency, times that of compound 23 (293T cells [2])	cell transfection efficiency, times that of YK-223 (293T cells [2]) [times]	cell transfection efficiency, times that of YK-224 (293T cells [2]) [times]	cell transfection efficiency, times that of YK-226 (293T cells [2]) [times]	fluorescence absorption value / cell transfection efficiency, times that of YK-203 (293T cells [2]) [times]	fluorescence absorption value / cell transfection efficiency, times that of YK-204 (293T cells [2])	fluorescence absorption value / cell transfection efficiency, times that of YK-205 (293T cells [2]) [times]	fluorescence absorption value / cell transfection efficiency, times that of YK-208 (293T cells [2]) [times]	fluorescence absorption value / cell transfection efficiency, times that of YK-210 (293T cells [2]) [times]	fluorescence absorption value / cell transfection efficiency, times that of YK-211 (293T cells [2]) [times]	fluorescence absorption value / cell transfection efficiency, times that of YK-212 (293T cells [2]) [times]	fluorescence absorption value / cell transfection efficiency, times that of YK-213 (293T cells [2]) [times]	fluorescence absorption value / cell transfection efficiency, times that of YK-214 (293T cells [2]) [times]	fluorescence absorption value / cell transfection efficiency, times that of YK-215 (293T cells [2]) [times]	fluorescence absorption value / cell transfection efficiency, times that of YK-216 (293T cells [2]) [times]	also measured
CCCCCCCCCCCOC(=O)CCCCCN(CCCCCCCC(=O)OCC(CCCCCCCC)CCCCCCCC)CCN(C)CCO [YK-202]	13.95	14.27	24.94	5.84	21.08 times and 21 times	22.49 times and 22 times	399.37	340.35	519.55	7.74	82 times and 82.30 times	29.11	7.76	6.47	21.87	7.66	21.95	6.54	30.53	13.14	molar ratio of polymer-conjugated lipid DMG-PEG2000 to carrier with the highest transfection efficiency (293T cells [1]): 1.5%; fluorescence absorption value / cell transfection efficiency, times that of YK-217 (293T cells [2]): 416.94 times; fluorescence absorption value / cell transfection efficiency, times that of YK-218 (293T cells [2]): 49.35 times; fluorescence absorption value / cell transfection efficiency, times that of YK-219 (293T cells [2]): 19.89 times; fluorescence absorption value / cell transfection efficiency, times that of YK-220 (293T cells [2]): 138.44 times; fluorescence absorption value, times that of YK-222 (293T cells [2]): 49.41 times; Relative light unit (RLU) (293T cells [2]): 29957419 RLU; Multiples of values that equivalent to YK-201 (293T cells [2]): 0.95; Multiples of values that equivalent to YK-202 (293T cells [2]): 1.00
CCCCCCCCCCCOC(=O)CCCCCN(CCCCCCCC(=O)OC(CCCCCCCC)CCCCCCCC)CCN(C)CCO [YK-201, heptadecan-9-yl-8-(2-((2-hydroxyethyl)(methylamino))ethyl)(6-oxo-6-((undecanyloxy)hexyl)amino)octanoate]	13.27	13.56	23.71	5.56	20.04 times	21.38 times	379.71	323.59	493.98	7.36	78 times and 78.25 times	27.68	7.38	6.15	20.79	7.28	20.87	6.22	29.03	12.49	fluorescence absorption value / cell transfection efficiency, times that of YK-217 (293T cells [2]): 396.42 times; fluorescence absorption value / cell transfection efficiency, times that of YK-218 (293T cells [2]): 46.92 times; fluorescence absorption value / cell transfection efficiency, times that of YK-219 (293T cells [2]): 18.91 times; fluorescence absorption value / cell transfection efficiency, times that of YK-220 (293T cells [2]): 131.62 times; fluorescence absorption value, times that of YK-222 (293T cells [2]): 46.97 times; Relative light unit (RLU) (293T cells [2]): 28482617 RLU; Multiples of values that equivalent to YK-201 (293T cells [2]): 1.00; Multiples of values that equivalent to YK-202 (293T cells [2]): 1.05; Ratio relative to SM-102 (293T cells [2]; RLU of the named lipid / RLU of SM-102, times that of SM-102): 17.10
CCCCCCCCC(CCCCCCCC)COC(=O)CCCCCN(CCCCCC(=O)OCC(CCCCCCCC)CCCCCCCC)CCN(C)CCO [YK-209, bis(2-octyldecyl)-6,6′-((2-(2-hydroxyethyl(methyl)amino)ethyl)azadialkyl)dihexanoate]	12.51	12.79	22.36	5.24	18.90 times	20.17 times	280.74	239.25	365.22	5.44	57 times and 57.85 times	20.46	5.46	4.55	15.37	5.39	15.43	4.60	21.46	9.24	fluorescence absorption value / cell transfection efficiency, times that of YK-217 (293T cells [2]): 293.09 times; fluorescence absorption value / cell transfection efficiency, times that of YK-218 (293T cells [2]): 34.69 times; fluorescence absorption value / cell transfection efficiency, times that of YK-219 (293T cells [2]): 13.98 times; fluorescence absorption value / cell transfection efficiency, times that of YK-220 (293T cells [2]): 97.32 times; fluorescence absorption value, times that of YK-222 (293T cells [2]): 34.73 times; Multiples of values that equivalent to YK-209 (293T cells [2]; RLU of YK-209 / RLU of the named lipid): 1.00
